The source of these data is publication PMC8290231 (Cancer Medicine, 2021).

For experiment [1], the system named is A549. The experiment is described as follows: CCK-8 cell proliferation assay. In kind it is cell-based. To be noted: Homo sapiens, A549, 72 h, negative control; CCK-8, 72 h; read-out: antiproliferative IC50, A549. On the technique in general: Formazan colour is commonly taken as a measure of viable cells.
The target of experiment [2] is T1, FGFR2 (Homo sapiens, UniProt P21802). The experiment is described as follows: FRET-based Z′-Lyte kinase assay. In kind it is biochemical.
T1 sequence (P21802 22-821): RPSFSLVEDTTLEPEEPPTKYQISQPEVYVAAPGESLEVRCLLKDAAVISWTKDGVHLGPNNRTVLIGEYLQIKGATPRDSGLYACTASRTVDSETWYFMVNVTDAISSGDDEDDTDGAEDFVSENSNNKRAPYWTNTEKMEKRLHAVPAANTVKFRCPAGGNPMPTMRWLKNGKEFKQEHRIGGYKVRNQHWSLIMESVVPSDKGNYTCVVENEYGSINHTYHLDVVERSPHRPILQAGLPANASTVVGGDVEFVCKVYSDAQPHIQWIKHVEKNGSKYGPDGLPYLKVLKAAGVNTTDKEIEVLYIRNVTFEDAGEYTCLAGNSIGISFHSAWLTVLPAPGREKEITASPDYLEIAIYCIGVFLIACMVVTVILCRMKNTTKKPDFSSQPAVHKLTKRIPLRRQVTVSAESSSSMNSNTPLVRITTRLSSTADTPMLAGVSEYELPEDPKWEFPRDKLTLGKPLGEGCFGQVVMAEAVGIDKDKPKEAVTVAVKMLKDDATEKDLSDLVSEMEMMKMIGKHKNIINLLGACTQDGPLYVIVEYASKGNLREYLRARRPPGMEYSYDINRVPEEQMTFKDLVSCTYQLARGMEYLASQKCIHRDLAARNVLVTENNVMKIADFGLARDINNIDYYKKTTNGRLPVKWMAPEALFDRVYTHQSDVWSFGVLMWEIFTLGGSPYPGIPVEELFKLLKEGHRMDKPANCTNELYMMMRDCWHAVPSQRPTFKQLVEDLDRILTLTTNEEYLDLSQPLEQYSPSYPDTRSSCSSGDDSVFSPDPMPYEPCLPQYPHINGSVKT
Experiment [3] concerns the target FGFR3 (Homo sapiens, UniProt P22607). Put plainly: FRET-based Z′-Lyte kinase assay. In kind it is biochemical.
Experiment [4] addresses T2, FGFR1 (Homo sapiens, UniProt P11362).
T2 construct: purchased Invitrogen (Waltham, MA, USA)
Put plainly: KINOMEscan binding affinity assay.

In experiment [5] the target is T3, FGFR3‐V555 M (Homo sapiens, UniProt P22607, V555M).
T3 construct: purchased KINOMEscan™ (commercial assay)
T3 sequence (P22607 23-806 V555M): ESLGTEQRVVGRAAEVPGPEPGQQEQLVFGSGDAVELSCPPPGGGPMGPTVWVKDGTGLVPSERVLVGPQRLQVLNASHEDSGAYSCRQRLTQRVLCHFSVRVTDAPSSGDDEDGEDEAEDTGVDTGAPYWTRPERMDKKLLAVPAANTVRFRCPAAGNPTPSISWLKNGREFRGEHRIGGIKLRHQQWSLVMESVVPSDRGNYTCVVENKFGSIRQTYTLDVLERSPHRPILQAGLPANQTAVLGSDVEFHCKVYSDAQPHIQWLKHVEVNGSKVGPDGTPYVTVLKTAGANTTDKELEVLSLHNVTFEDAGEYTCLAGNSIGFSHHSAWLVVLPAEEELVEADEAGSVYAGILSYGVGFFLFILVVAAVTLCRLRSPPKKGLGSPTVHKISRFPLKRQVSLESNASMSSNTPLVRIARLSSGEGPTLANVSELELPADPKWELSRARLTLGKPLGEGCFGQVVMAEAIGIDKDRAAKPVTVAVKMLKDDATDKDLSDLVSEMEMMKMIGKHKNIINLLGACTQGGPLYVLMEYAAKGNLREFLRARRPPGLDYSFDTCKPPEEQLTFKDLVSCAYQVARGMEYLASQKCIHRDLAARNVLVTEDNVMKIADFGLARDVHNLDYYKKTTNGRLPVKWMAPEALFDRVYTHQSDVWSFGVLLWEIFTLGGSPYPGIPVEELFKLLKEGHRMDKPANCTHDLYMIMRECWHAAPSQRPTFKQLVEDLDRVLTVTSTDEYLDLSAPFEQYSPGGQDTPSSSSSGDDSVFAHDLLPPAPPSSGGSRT
Put plainly: KINOMEscan binding affinity assay.

Experiment [6] relates to FGFR1‐V561F. The experiment is described as follows: Cellular thermal shift assay (CETSA) in Ba/F3‐FGFR1‐V561F cells. In kind it is binding. To be noted: 100 nM, 38.0 to 57.8℃.
Experimental: Pairs consisting of one experimental aliquot and one DMSO aliquot were heated from 38.0 to 57.8℃ for 3 min. Then, the samples were exposed to liquid nitrogen for 10 min, and then placed in a water bath at 37℃ for 10 min. After three freeze–thaw cycles, cell lysates were centrifuged at 12000 rpm at 4℃ for 10 min, and then boiled for 15 min. The soluble supernatant was used for WB analysis.
Drug‐treated cells were heated at gradient temperature from 38℃ to 57.8℃ for 3 min and then lysed, centrifuged to separate the soluble fractions from precipitates. The soluble fractions were analyzed by immunoblotting. Relative band intensities were plotted as a function of temperature followed a sigmoidal trend.
In experiment [7] the target is T4, FGFR3‐G697C (Homo sapiens, UniProt P22607, G697C).
T4 construct: purchased KINOMEscan™ (commercial assay)
T4 sequence (P22607 23-806 G697C): as the sequence (P22607 23-806 V555M) above, with M533V, G675C counted along it
Put plainly: KINOMEscan binding affinity assay.

In experiment [8] the target is T5, FGFR4 (Homo sapiens, UniProt P22455). The experiment is described as follows: FRET-based Z′-Lyte kinase assay. In kind it is biochemical.
T5 sequence (P22455 22-802): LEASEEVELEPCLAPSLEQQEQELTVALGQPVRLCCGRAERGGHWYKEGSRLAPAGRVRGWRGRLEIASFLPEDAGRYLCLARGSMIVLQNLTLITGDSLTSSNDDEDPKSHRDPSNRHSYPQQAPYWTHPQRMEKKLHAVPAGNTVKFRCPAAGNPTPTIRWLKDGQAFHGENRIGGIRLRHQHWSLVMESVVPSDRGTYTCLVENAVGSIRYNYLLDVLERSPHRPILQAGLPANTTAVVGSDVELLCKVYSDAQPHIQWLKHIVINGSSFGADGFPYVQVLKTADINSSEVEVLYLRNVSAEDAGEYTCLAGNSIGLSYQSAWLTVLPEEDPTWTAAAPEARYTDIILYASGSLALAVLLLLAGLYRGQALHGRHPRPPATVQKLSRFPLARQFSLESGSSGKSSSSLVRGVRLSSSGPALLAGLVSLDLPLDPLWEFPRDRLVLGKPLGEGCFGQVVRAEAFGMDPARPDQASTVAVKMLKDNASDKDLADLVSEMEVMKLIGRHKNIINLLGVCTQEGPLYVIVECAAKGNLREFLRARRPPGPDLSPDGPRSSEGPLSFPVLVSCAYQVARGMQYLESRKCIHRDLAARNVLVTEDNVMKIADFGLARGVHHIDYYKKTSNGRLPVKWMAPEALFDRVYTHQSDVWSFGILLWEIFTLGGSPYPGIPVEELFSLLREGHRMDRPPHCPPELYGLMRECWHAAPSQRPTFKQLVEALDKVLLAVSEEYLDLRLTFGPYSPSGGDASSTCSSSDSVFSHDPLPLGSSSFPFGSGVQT
For experiment [9], the system named is A204. The experiment is described as follows: CCK-8 cell proliferation assay. Type of experiment: cell-based. To be noted: Homo sapiens, A204; FGFR1 amplification; CCK-8, 72 h; read-out: antiproliferative IC50, A204.
Experiment [10] concerns the target T2, FGFR1. Put plainly: FRET-based Z′-Lyte kinase assay. In kind it is biochemical. How it is done:
FGFR1 and the Z′‐Lyte kinase assay kit were purchased from Invitrogen (Waltham, MA, USA) and the assays were performed according to the manufacturer's instructions as described previously.[27]

Experiment [11] has as its system Ba/F3 stable cells (FGFR1‐V561F/M and other mutant). Put plainly: CCK-8 proliferation, Ba/F3 stable cells with FGFR1 and mutants (summary). Type of experiment: cell-based. The note with it: Mus musculus, BaF3; range over Ba/F3 stable cells. How it is done:
The Ba/F3 cell lines stably expressing FGFR1, FGFR1‐V561M, FGFR1‐V561F, FGFR1‐K656N, and FGFR1‐K656E were self‐established through electroporation pCDNA3.1‐TEL plasmids using the Amaxa Cell Line Nucleofector Kit V (Lonza, Cologne, Germany). Stable cell lines were selected by G418 (Merck, USA) and then withdrawal of IL‐3 (R&D). […] Parental Ba/F3 cells were maintained in RPMI 1640 supplemented with 10% FBS, 100 U/ml of penicillin, […] of streptomycin, and 10 ng/ml of IL‐3, while all Ba/F3 stable cell lines were cultured in the same medium without IL‐3.
Cells were seeded in 96‐well plate in complete medium (1000–6000 cells/well) and cultured for overnight. Then the cells were exposed to gradient concentrations (0.0005–10 μM) of compounds. Cell proliferation was analyzed by Cell Counting Kit 8 (CK04, Dojindo Laboratories, Japan) after co‐incubation for a further 72 h. IC50 values were calculated by fitting of concentration–response curves using GraphPad Prism 8.01 software. Each assay was repeated at least three times.
There is, however, no commercially available FGFR1 mutant kinase to validate this. Therefore, we constructed Ba/F3 model cells stably expressing FGFR1‐WT, K656E, K656N, V561M, and V561F mutations.

The target of experiment [12] is T5, FGFR4. Put plainly: KINOMEscan binding affinity assay.
Experiment [13] deals with FGFR1 signal pathway in H1581. The experiment is described as follows: Western blot of FGFR1 signal pathway. In kind it is cell-based. How it is done:
(§1) Cells were treated with different concentrations of compound or DMSO for indicated time. Then, cells were lysed with 1 × SDS sample lysis buffer (recommended by CST). […] After blocking with 5% BSA in TBST solution (0.5% Tween‐20) at room temperature for 4 hrs, the membranes were incubated with the corresponding primary antibody (1:2000–1:200) at 4℃ overnight. After washing with TBST for 3–5 times, the HRP‐conjugated secondary antibodies were incubated for 2 hrs. The protein signals were detected with Amersham Imager 600 system (GE, Boston, MA, USA) using an ECL western blotting detection kit (Thermo Fisher Scientific, Waltham, MA, USA).
(§2) Cell lysates were separated by sodium dodecyl sulfate‐polyacrylamide gel electrophoresis (SDS‐PAGE) and analyzed by western blot for phosphorylated FGFR1, FGFR1, phosphorylated FRS2, FRS2, phosphorylated AKT (Ser473), AKT, phosphorylated Erk, and Erk. GAPDH was used as a control
Background: In western blotting, separated proteins are transferred to a membrane and probed.

Experiment [14] deals with FGFR1 signal pathway in Ba/F3‐FGFR1. The experiment is described as follows: Western blot of FGFR1 signal pathway. In kind it is cell-based. The note with it: Ba/F3‐FGFR1, 4 h, 3.7 nM to 300 nM. How it is done: as §1, §2
The test system of experiment [15] is FGFR1 signal pathway in A204. The experiment is described as follows: Western blot of FGFR1 signal pathway. In kind it is cell-based. How it is done:
as §1, §2

The subject of experiment [16] is FGFR1 signal pathway in A549. Put plainly: Western blot of FGFR1 signal pathway. In kind it is cell-based. How it is done: as §1, §2
Experiment [17] relates to Ba/F3‐FGFR1. The experiment is described as follows: Cell cycle analysis by flow cytometry (propidium iodide). Type of experiment: cell-based. To be noted: Ba/F3‐FGFR1, 100 nM, 24 h. How it is done:
About 6 × 10^5 cells were re‐suspended in 150 μl of BD Cytofix/Cytoperm buffer solution I for 10 min at room temperature. The cell suspensions were added with BD Cytofix/Cytoperm buffer solution II and incubated with another 10 min at room temperature, and then incubated with 200 μl of propidium iodide buffer (0.1 mg/ml) in the dark for 10 min at 4℃. Assays were performed with a Guava easyCyte flow cytometer (Merck, USA).

Experiment [18] deals with T1, FGFR2. Put plainly: KINOMEscan binding affinity assay.

T2 sequence (P11362 22-822): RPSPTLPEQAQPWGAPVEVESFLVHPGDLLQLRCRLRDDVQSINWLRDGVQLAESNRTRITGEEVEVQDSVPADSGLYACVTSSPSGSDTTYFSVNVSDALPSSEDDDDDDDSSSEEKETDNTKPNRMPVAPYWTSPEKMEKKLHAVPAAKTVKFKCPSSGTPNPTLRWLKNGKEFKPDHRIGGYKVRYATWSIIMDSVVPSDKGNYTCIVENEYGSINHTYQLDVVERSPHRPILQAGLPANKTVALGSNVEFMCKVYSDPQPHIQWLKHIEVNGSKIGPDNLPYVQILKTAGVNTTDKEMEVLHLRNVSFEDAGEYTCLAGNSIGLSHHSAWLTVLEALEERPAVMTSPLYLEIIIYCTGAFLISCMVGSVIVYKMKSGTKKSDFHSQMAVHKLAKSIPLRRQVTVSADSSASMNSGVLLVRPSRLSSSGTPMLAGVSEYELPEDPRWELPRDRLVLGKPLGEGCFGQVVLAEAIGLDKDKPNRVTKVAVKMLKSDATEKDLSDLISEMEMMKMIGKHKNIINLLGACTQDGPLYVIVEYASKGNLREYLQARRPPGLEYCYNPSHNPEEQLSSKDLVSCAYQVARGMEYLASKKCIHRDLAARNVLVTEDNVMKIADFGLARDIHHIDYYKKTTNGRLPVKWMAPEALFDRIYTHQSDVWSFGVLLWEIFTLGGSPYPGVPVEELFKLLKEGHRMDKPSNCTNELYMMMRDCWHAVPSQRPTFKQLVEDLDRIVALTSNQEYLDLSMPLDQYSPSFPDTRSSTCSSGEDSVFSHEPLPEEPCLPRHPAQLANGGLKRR
Sequence of FGFR3 (P22607 23-806): as the sequence (P22607 23-806 V555M) above, with M533V counted along it

With `CCN1CCN(c2ccc(Nc3cc(N(C)C(=O)Nc4c(Cl)c(OC)cc(OC)c4Cl)ncn3)cc2)CC1` [BGJ398], in experiment [1], the IC50 was 8730 ± 1930 nM.

For `Cc1ccc(C(=O)Nc2ccc(CN3CCN(C)CC3)c(C(F)(F)F)c2)cc1C#Cc1cnc2[nH]ncc2c1` [GZD824], the concentration for half-maximal inhibition (IC50) was 2.77 ± 0.082 nM in experiment [2]; 8.1 ± 0.15 nM in experiment [3]; 30.3 ± 21.7 nM in experiment [8]; 24.4 ± 6.2 nM in experiment [9]; 4.14 ± 0.96 nM in [10]; 8.1 to 55 nM in experiment [11]. Also, the EC50 came out at 2.72 nM in experiment [2] (Figure 1B curve fit), 8.2 nM in [3] (Figure 1B curve fit) and 4.82 nM in [10] (Figure 1B curve fit). In addition, the dissociation constant (Kd) in [4] is 7.3 ± 0.3 nM; in [5], 19.5 ± 4.9 nM; in experiment [7], 39.5 ± 7.8 nM; in experiment [12] it was 19 ± 1.4 nM; in [18], 15.5 ± 3.5 nM. Further, the “thermal stability of FGFR1‐V561F protein (CETSA)” value in [6] is recorded as “significantly enhanced”. For the same compound, the “dose with obvious inhibition of pFRS2 and pERK” value in experiment [13] (H1581) and in experiment [15] (A204) was ≥ 3.7 nM throughout. For the same compound, the “total level of FGFR1 protein expression” value in [13] (H1581), in experiment [15] (A204) and in [16] (A549) was “no obvious effect” in each case. In addition, the “FGFR1 phosphorylation, downstream FRS2 and ERK1/2” value in experiment [13] (H1581, 4 h, 3.7 nM to 300 nM) is on record as “dose‐dependent inhibition”; in experiment [14] it was “dose‐dependent inhibition”. For the same compound, the “effect on pAKT” value in [13] (H1581, even at 300 nM) is reported as “no effect”; in experiment [15] (A204, even at 300 nM), “no effect”. The “effects on FGFR1 downstream signal pathway” value in experiment [16] (A549, negative control) is given as “very weak”. The G0/G1 phase in [17] came out at 70.88%.

As a reminder, the IC50 is the concentration that gives 50% inhibition. As usually defined, the EC50 is the concentration at which the effect is half-maximal. The Kd is the concentration at which binding is half-saturated.
